From patent US6765105B2, “Compound and pharmaceutical composition of antiplasmid effect and the preparation thereof” (priority 2000, dated 2004)
“Also recorded” adds a separate entry of the source. Read-outs that look alike come from different tables or passages of the source. Marks after values point to notes of the source that are not given here.

Experiments:
[1] = system: RN 4220 S. aureus, plasmid pBI 109 PGL; format: cell-based; conditions: without substance 68.7
[2] = system: RN 4220 S. aureus, plasmid pIP 856; format: cell-based; conditions: without substance 2.3
[3] = system: plasmid; assay: In vitro experiments for antiplasmid effect (plasmid eliminating ability); format: cell-based; conditions: for Plasmid eliminating ability: in concentration of 50 μg/ml; for Plasmid eliminating ability / Eliminating ability (in words): in vitro
Excerpt: The elimination of R-plasmids and F′lac plasmids, as well as inhibition of transmission of R-plasmid transfer were studied.
These are the compounds under mark FC-1181, FC-1186 and Sila-439. The compound sila-429 (75%) was compared against three representatively antibiotic resistant strains of bacteria, as follows: the polyresistant Acinetobacter anitratus, the resistant to gentamycine staphylococcus aureus and the Methycilline resistant Staphylococcus aureus strains.
(§1) We made a dilution of 10^−4 from a preliminary culture of 16 hours of E. coli strains containing R-factor, and dosed 0.05 ml therefrom into a broth culture medium MTE of 5 ml. We completed the cultures with the examined compounds in different concentrations and kept them at the temperature 37° C. during 24 to 48 hours without aeration. We made different dilutions from the cultures and streaked 0.1 ml of them onto EP agar plates. Having incubated them during the night we made a replication from the plates containing the cultures onto plates containing the corresponding antibiotics.
(§2) We made a dilution of 10^−4 from a culture of 16 hours of the bacteria strain K12 LE140 of E. coli and we inoculated 0.05 ml (1 to 5×10^3 cells) of it into 5 ml of broth culture medium MTE. The cultures with plasmid eliminating compounds added in different concentrations were incubated at 37° C. during 24 hours. We made dilutions from the contents of tubes, in which growth of bacteria were detected, then 0.1 ml of these dilutions were streaked onto EMB agar. The plates were incubated at 37° C. during 24 hours, then we counted the settlements of bacteria of types lac^+ and lac^−, which provides basis to calculate the percent of inhibition.

[4] = system: E. coli K12 F′lac2 donor to E. coliχ1037 recipient
Experimental: (§3) We made tenfold dilutions of fresh donor culture of E. coli C600 R144 drd-3 and of fresh recipient culture resistant to i^r and in some cases to nalid-x acid of E. coli K12 W1 at optical density of 0.4 ([…]), then we mixed together 1.0 ml of donor culture and 1.0 ml of recipient culture and kept the samples at the temperature 37° C. 0 to 24 hours in presence of the applied compounds.
(§4) As control the mixture of donor and recipient cultures of the same proportion was incubated.
(§5) We performed experiments of two types to clarify the manner of action. The donor cells were previously treated during 5 minutes with the compound to be examined being in corresponding concentration, and the recipient cells were added thereafter in the experiments of one type The compounds to be examined were added 5 minutes after mixing together the donor and recipient cultures in the experiments of the other type. The target of our examinations was the inhibition of the conjugated transfer at the formed pairs. We made tenfold dilutions of the samples with physiological saline solution, the formed pairs of cells were divided by shaking during 1 minute then we made following dilutions where no more resistance transfer passed (see. Beverley and fellow-workers, 1981).
(§6) We streaked quantities of 0.1 ml form the dilutions onto MTE agar plates containing 50 μg/ml of kanamycine and onto plates containing 500 μg/ml of sodium azide to determine the number of recombinants. The number of donor bacteria was established only on the culture medium containing kanamycine, the number of recipient ones was established only on the culture medium containing sodium azide. The plates were kept during 48 hours at 37° C.

[5] = system: E. coli K12 J5-3 (R27) donor to E. coliχ1037 recipient; conditions: donor E. coli K12 J5-3 (R27)
Experimental: as §3, §4, §5, §6

[6] = system: E. coli K 12 F′lac1 donor to E coliχ1037 recipient
Experimental: as §3, §4, §5, §6

[7] = system: E. coli K12 J5-3 (R386) donor to E. coliχ1037 recipient; conditions: donor E. coli K12 J5-3 (R386)
Experimental: as §3, §4, §5, §6

[8] = system: E. coli K12 J5-3 (R16) donor to E. coliχ1037 recipient; conditions: donor E. coli K12 J5-3 (R16)
Experimental: as §3, §4, §5, §6

[9] = system: RN 4220 S. aureus, plasmid pCRG 1600; format: cell-based; conditions: without substance 2.1
[10] = system: F′lac plasmid of E. coli K12; format: cell-based
Experimental: as §2

[11] = system: RN 4220 S. aureus, plasmid pIP 855; format: cell-based; conditions: without substance 1.8
[12] = system: E. coli; assay: Bacteriostatic effect (MIC), serial dilution in liquid culture medium; format: cell-based
[13] = system: E. coli K12 F′lac (PBR322) plasmid; format: cell-based
Experimental: as §1
The plates containing antibiotics were incubated at 37° C. during 24 hours then the settlements of bacteria on them were compared to those on the master plates and the requirement of nutrition of the bacteria was examined.

[14] = system: Acinetobactes anitratus (resistant to Chlorocid)
Experimental: (§7) The bacteriostatic effect was inspected on a liquid culture medium using method of serial dilution. We inoculated 0.05 ml of culture of the examined bacteria being in exponential phase (i.e. of optical density 0.4) in dilution by 10^−4 into broth culture medium MTE of 5 ml. The culture of E. coli of optical density 0.4 contained 4.1 to 5.2×10^8, the one of Staphylococcus aureus of similar density contained 2.2 to 8.2×10^7 settlement building units per ml. […] We examined thereafter the smallest concentration of each compound, which still inhibits the proliferation of the identical number of bacteria. The examinations for the antiplasmid effect could be begun after having been obtained the mentioned date, because these effects can be detected only at values lower than MIC.
(§8) The previously established MIC (minimal inhibiting concentration) values are as follows: […]

[15] = system: Escherichia coli (resistant to Chlorocid)
Experimental: as §7, §8

[16] = system: Staphylococcus aureus (resistant to gentamycine)
Experimental: as §7, §8

[17] = system: mice
Experimental: We used the usual dose of inoculation i.e. 0,2 ml per 10 g weight. […] The exact definition of this value should be done in an institute dealing with toxicology and clinical pharmacology.

[18] = concentration of elimination 18 mg/ml
[19] = second line for FC-2006/C, concentration of elimination not given
[20] = concentration of elimination 62,5 mg/ml
[21] = concentration of elimination 312, mg/ml
[22] = concentration of elimination 25 mg/ml
[23] = concentration of elimination 33 mg/ml
[24] = dose of 500 mg/kg, intraperitoneal, 5 mice

For “4(dimethyl-n-butyl-silil-methyloxy)-benzoic acid-(3-pyridyl)-methylester-methoiodide [FC-2006/C]”, the “Frequency of elimination (%)” value ([1]; plasmid pBI 109 PGL, 9.5 μg/ml) was 94.4%, the “Frequency of elimination (%)” value ([2]; plasmid pIP 856, 9.5 μg/ml) was 75.1% and the Plasmid eliminating ability [3] was “outstanding plasmid eliminating ability”. The “Eliminating ability (in words)” value [3] was “good eliminating ability”, the Eliminating effect ([3]; only to one E. coli plasmid) was about 100% and the Frequency of transfer ([4]; donor E. coli K12 F′lac2, in concentration of 24.7 μg/ml, without substance 0.6 × 10^−6) was 3 × 10^−6. For the same compound, the Frequency of transfer ([5]; in concentration of 24.7 μg/ml, without substance 0.2 × 10) was 0.2 × 10^−1, the Frequency of transfer ([6]; donor E. coli K 12 F′lac1, in concentration of 24.7 μg/ml, without substance 0.6 × 10^−6) was 2.2 × 10^−6 and the Frequency of transfer ([7]; in concentration of 24.7 μg/ml, without substance 0.5 × 10^−1) was 0.9 × 10^−2. For the same compound, the Frequency of transfer ([8]; in concentration of 24.7 μg/ml, without substance 0.3 × 10^−1) was 0.3 × 10^−3, the “Frequency of elimination (%)” value ([9]; plasmid pCRG 1600, 9.5 μg/ml) was 32.6% and the “Frequency of elimination (%) Lac” value [10, 18] was 0%. The “Frequency of elimination (%) Lac” value [10, 19] was 0%, the “Frequency of elimination (%)” value ([11]; plasmid pIP 855, 9.5 μg/ml) was 69.2% and the MIC [12] was 25 mg/mL. For the same compound, the “Frequency of elimination (%) ApTC” value [13, 18] was 0%, the “Frequency of elimination (%) TC” value [13, 18] was 0% and the “Frequency of elimination (%) ApTC” value [13, 19] was 0%. For the same compound, the “Frequency of elimination (%) TC” value [13, 19] was 0%.
With `CC[n+]1c(-c2ccccc2)c2cc(N)ccc2c2ccc(N)cc21` [Ethidium bromide, reference compound] the “Frequency of elimination (%)” value ([1]; plasmid pBI 109 PGL, 3.9 μg/ml) was 88.2%, the “Frequency of elimination (%)” value ([2]; plasmid pIP 856, 1.95 μg/ml) was 12.3% and the “Frequency of elimination (%)” value ([9]; plasmid pCRG 1600, 62.5 μg/ml) was 2.8%. The “Frequency of elimination (%) Lac” value [10, 20] was 0%, the “Frequency of elimination (%) Lac” value [10, 21] was 0% and the “Frequency of elimination (%)” value ([11]; plasmid pIP 855, 1.95 μg/ml) was 9.4%. The “Frequency of elimination (%) ApTC” value [13, 20] was 24%, the “Frequency of elimination (%) TC” value [13, 20] was 30% and the “Frequency of elimination (%) ApTC” value [13, 21] was 0%. For the same compound, the “Frequency of elimination (%) TC” value [13, 21] was 10%.
`CCCC[Si](C)(C)COc1ccc(C(=O)OCCC[N+](C)(C)C)cc1.[I-]` [FC-2012, 4-(dimethyl-n-butyl-silil-methyloxy)-benzoic acid-3-dimethylamino-propyl-ester-methoiodide] was tested, and the “Frequency of elimination (%)” value ([1]; plasmid pBI 109 PGL, 7.,8 μg/ml) was 88.0%, the “Frequency of elimination (%)” value ([2]; plasmid pIP 856, 7.8 μg/ml) was 34.6% and the “Eliminating ability (in words)” value [3] was “good eliminating ability”. The Frequency of transfer ([4]; donor E. coli K12 F′lac2, in concentration of 15 μg/ml, without substance 0.2 × 10^−5) was 0**, the Frequency of transfer ([5]; in concentration of 30 μg/ml, without substance 2.5 × 10^−4) was 2.3 × 10^−4*** and the Frequency of transfer ([6]; donor E. coli K 12 F′lac1, in concentration of 15 μg/ml, without substance 0.8 × 10^−6) was 0**. The Frequency of transfer ([7]; in concentration of 30 μg/ml, without substance 0.4) was 0.6 × 10^−1***, the Frequency of transfer ([8]; in concentration of 30 μg/ml, without substance 1.2 × 10^−2) was 1 × 10^−3*** and the “Frequency of elimination (%)” value ([9]; plasmid pCRG 1600, 7.8 μg/ml) was 10.1%. For the same compound, the “Frequency of elimination (%) Lac” value [10, 22] was 0%, the “Frequency of elimination (%) Lac” value [10, 23] was 0% and the “Frequency of elimination (%)” value ([11]; plasmid pIP 855, 7.8 μg/ml) was 41.9%. For the same compound, the MIC [12] was 39 mg/mL, the “Frequency of elimination (%) ApTC” value [13, 22] was 2% and the “Frequency of elimination (%) TC” value [13, 22] was 10%. The “Frequency of elimination (%) ApTC” value [13, 23] was 27% and the “Frequency of elimination (%) TC” value [13, 23] was 58%.
For `C[N+](C)(C)CCOC(=O)c1ccc(OCCC[Si](C)(C)C)cc1.[I-]` [Sila-439, 4-(3-trimethyl-silil-propyloxy)-benzoic acid-2-dimethyl-amino-ethyl-ester-methoiodide], the “MIC (minimal inhibiting concentration)” value [14] was 0.08 mg/mL, the “MIC (minimal inhibiting concentration)” value [15] was 0.07 mg/mL and the “MIC (minimal inhibiting concentration)” value [16] was 180 μ/ml. The “Concentration at which the antiplasmid effect manifests” value [3] was 40 µg/mL, the Plasmid eliminating ability [3] was “outstanding plasmid eliminating ability” and the “Eliminating ability (in words)” value [3] was “extraordinary good eliminating ability; also recorded: very good plasmid elimination effect”. For the same compound, the “Antiplasmid effect in in vitro experiments” value ([3]; three compounds effective from 36 studied) was “effective”, the “Toxicity (i.p), mice alive per mice inoculated” value ([17]; 50 mg/kg (0.01 ml/mouse) i.p., 2 hours) was 5/5 and the “Toxicity (i.p), mice alive per mice inoculated” value ([17]; 50 mg/kg (0.01 ml/mouse) i.p., 6 hours) was 5/5. The “Toxicity (i.p), mice alive per mice inoculated” value ([17]; 50 mg/kg (0.01 ml/mouse) i.p., 9 hours) was 5/5, the “Toxicity (i.p), mice alive per mice inoculated” value ([17]; 50 mg/kg (0.01 ml/mouse) i.p., 12 hours) was 5/5 and the “Toxicity (i.p), mice alive per mice inoculated” value ([17]; 50 mg/kg (0.01 ml/mouse) i.p., 24 hours) was 5/5. The “Toxicity (i.p), mice alive per mice inoculated” value ([17]; 500 mg/kg (0.1 ml/mouse) i.p., 2 hours) was 0/5, the “Condition of the mice after inoculation” value ([17]; dose of 50 mg/kg, intraperitoneal) was “lived and moved vividly exactly like those in the control group” and the Mortality after inoculation [17, 24] was “all the five mice died”. The Spasms after inoculation [17, 24] was “spasms occurred in the 5 inoculated mice in two minutes”.
